Data: ChEMBL document CHEMBL4402583, “Rational Substitution of ε-Lysine for α-Lysine Enhances the Cell and Membrane Selectivity of Pore-Forming Melittin” (J Med Chem, 2020)
Values after ≈ are worked out from the molar mass of the structure shown. Active and inactive are the calls of the source. No cut-off for these calls is given here.

Experiments:
Pseudomonas aeruginosa = experiment: Antibacterial activity against Pseudomonas aeruginosa assessed as reduction in bacterial growth incubated for 24 hrs by broth microdilution method; type: functional
Candida albicans = experiment: Antifungal activity against Candida albicans assessed as reduction in fungal growth incubated for 24 hrs by broth microdilution method; type: functional
Staphylococcus aureus [1] = experiment: Antibacterial activity against methicillin-sensitive Staphylococcus aureus assessed as reduction in bacterial growth incubated for 24 hrs by broth microdilution method; type: functional
Staphylococcus aureus [2] = experiment: Antibacterial activity against methicillin-resistance Staphylococcus aureus assessed as reduction in bacterial growth incubated for 24 hrs by broth microdilution method; type: functional
Enterococcus = experiment: Antibacterial activity against vancomycin-resistant Enterococcus assessed as reduction in bacterial growth incubated for 24 hrs by broth microdilution method; type: functional
Acinetobacter baumannii [3] = experiment: Antibacterial activity against multidrug-resistant Acinetobacter baumannii assessed as reduction in bacterial growth incubated for 24 hrs by broth microdilution method; type: functional
Enterobacteriaceae = experiment: Antibacterial activity against Carbapenem-Resistant Enterobacteriaceae assessed as reduction in bacterial growth incubated for 24 hrs by broth microdilution method; type: functional
[4] = Cytotoxicity against HDF cells assessed as cell viability at 500 ug/ml incubated for 24 hrs by MTS assay relative to control; type: cell-based; settings: human, HDF cells (NHDF, human dermal fibroblasts); read-out: Activity
NHDF = experiment: Cytotoxicity against HDF cells assessed as truncation and reduction in cytoskeleton at 500 ug/ml incubated for 24 hrs by Alexa Fluor […] phalloidin-FITC/Hoescht dye staining based fluorescence microscopic analysis; type: cell-based; settings: human
HaCaT = experiment: Cytotoxicity against human HaCaT cells assessed as truncation and reduction in cytoskeleton at 500 ug/ml incubated for 24 hrs by Alexa Fluor […] phalloidin-FITC/Hoescht dye staining based fluorescence microscopic analysis; type: cell-based
[5] = Hemolytic activity against human erythrocytes assessed as hemoglobin release incubated for 1 hr; type: ADME, cell-based, Erythrocyte; settings: read-out: HD50
Enterococcus faecalis [6] = experiment: Antibacterial activity against vancomycin-resistant Enterococcus faecalis ATCC 29212 assessed as log10 reduction in bacterial viability at 2 to 4 times MIC incubated for 30 mins in MHB medium followed by reincubation on MH agar plate for 24 to 48 hrs by time kill kinetics analysis; type: functional
Enterococcus faecalis [7] = experiment: Antibacterial activity against vancomycin-resistant Enterococcus faecalis 1010 assessed as log10 reduction in bacterial viability at 2 to 4 times MIC incubated for 30 mins in MHB medium followed by reincubation on MH agar plate for 24 to 48 hrs by time kill kinetics analysis; type: functional
Enterococcus faecalis [8] = experiment: Antibacterial activity against vancomycin-resistant Enterococcus faecalis 1002 assessed as log10 reduction in bacterial viability at 2 to 4 times MIC incubated for 30 mins in MHB medium followed by reincubation on MH agar plate for 24 to 48 hrs by time kill kinetics analysis; type: functional
Acinetobacter baumannii [9] = experiment: Antibacterial activity against Acinetobacter baumannii 1001 assessed as reduction in bacterial viability at 2 or 4 times MIC incubated up to 24 hrs in MHB medium followed by reincubation on MH agar plate for 24 to 48 hrs by time kill kinetics assay; type: functional, organism-based
Escherichia coli [10] = experiment: Antibacterial activity against Escherichia coli 1004 assessed as reduction in bacterial viability at 2 or 4 times MIC incubated up to 24 hrs in MHB medium followed by reincubation on MH agar plate for 24 to 48 hrs by time kill kinetics assay; type: functional, organism-based
Klebsiella pneumoniae = experiment: Antibacterial activity against Klebsiella pneumoniae 1008 assessed as reduction in bacterial viability at 2 or 4 times MIC incubated up to 24 hrs in MHB medium followed by reincubation on MH agar plate for 24 to 48 hrs by time kill kinetics assay; type: functional, organism-based
Enterococcus faecalis [11] = experiment: Induction of pore formation in intact vancomycin-resistant Enterococcus faecalis ATCC 29212 cell membrane assessed as SG uptake at 2 times MIC by SG dye based fluorescence based assay; type: organism-based
Enterococcus faecalis [12] = experiment: Induction of pore formation in intact vancomycin-resistant Enterococcus faecalis 1002 cell membrane assessed as SG uptake at 2 times MIC by SG dye based fluorescence based assay; type: organism-based
Acinetobacter baumannii [13] = experiment: Induction of pore formation in intact Acinetobacter baumannii 1001 cell membrane assessed as SG uptake at 2 times MIC by SG dye based fluorescence based assay; type: organism-based
Escherichia coli [14] = experiment: Induction of pore formation in intact Escherichia coli 1004 cell membrane assessed as SG uptake at 2 times MIC by SG dye based fluorescence based assay; type: organism-based
Acinetobacter baumannii [15] = experiment: Antibacterial activity against Acinetobacter baumannii ATCC 19606 assessed as reduction in bacterial growth at sublethal concentrations measured after 20 serial passages by broth microdilution method; type: functional, organism-based; settings: ATCC 19606 = CIP 70.34 = JCM 6841
Enterococcus faecalis [16] = experiment: Resistance index, ratio of MIC for vancomycin-resistant Enterococcus faecalis 1010 measured after 20 serial passages by broth microdilution method to MIC for vancomycin-resistant Enterococcus faecalis 1010 incubated for 24 hrs by broth microdilution method; type: functional
T-cell [17] = experiment: Immunogenicity in human PBL T cells assessed as increase in IL-2 production at 62.5 or 125 ug/ml incubated for 24 hrs by ELISA; type: ADME, cell-based
T-cell [18] = experiment: Immunogenicity in human PBL T cells assessed as increase in IL-4 production at 62.5 or 125 ug/ml incubated for 24 hrs by ELISA; type: ADME, cell-based
T-cell [19] = experiment: Immunogenicity in human PBL T cells assessed as increase in IL-5 production at 62.5 or 125 ug/ml incubated for 24 hrs by ELISA; type: ADME, cell-based
T-cell [20] = experiment: Immunogenicity in human PBL T cells assessed as increase in IFN-gamma production at 62.5 or 125 ug/ml incubated for 24 hrs by ELISA; type: ADME, cell-based
[21] = Stability of the compound in rabbit tear fluid measured after 2 hrs by UPLC-MS analysis; type: ADME, Oryctolagus cuniculus
[22] = Stability of the compound in rabbit tear fluids assessed as parent compound remaining measured after 4 hrs by UPLC-MS analysis; type: ADME, Oryctolagus cuniculus; settings: tear fluid, read-out: Stability
Oryctolagus cuniculus [23] = experiment: Induction of reepithelialization in injured New Zealand white rabbit cornea assessed as wound healing at 0.3% administered topically for qid measured at day 1 post-injury by fluorescein sodium staining based microscopic imaging analysis (reference value: 89.9 +/- 2.9 %); type: organism-based; settings: in vivo, topical_or_ocular
Oryctolagus cuniculus [24] = experiment: Induction of reepithelialization in injured New Zealand white rabbit cornea assessed as wound healing administered topically for qid measured at day 2 post-injury by fluorescein sodium staining based microscopic imaging analysis (reference value: 76.6 +/- 4.5 %); type: organism-based; settings: in vivo, topical_or_ocular
Oryctolagus cuniculus [25] = experiment: Induction of reepithelialization in injured New Zealand white rabbit cornea assessed as wound healing administered topically for qid measured at day 3 post-injury by fluorescein sodium staining based microscopic imaging analysis (reference value: 63.9 +/- 5.3 %); type: organism-based; settings: in vivo, topical_or_ocular
Oryctolagus cuniculus [26] = experiment: Induction of reepithelialization in injured New Zealand white rabbit cornea assessed as wound healing administered topically for qid measured at day 4 post-injury by fluorescein sodium staining based microscopic imaging analysis (reference value: 48.4 +/- 7.6 %); type: organism-based; settings: in vivo, topical_or_ocular
Oryctolagus cuniculus [27] = experiment: Induction of reepithelialization in injured New Zealand white rabbit cornea assessed as wound healing administered topically for qid measured at day 5 post-injury by fluorescein sodium staining based microscopic imaging analysis (reference value: 39.8 +/- 6.2 %); type: organism-based; settings: in vivo, topical_or_ocular
Oryctolagus cuniculus [28] = experiment: Induction of reepithelialization in injured New Zealand white rabbit cornea assessed as wound healing administered topically for qid measured at day 6 post-injury by fluorescein sodium staining based microscopic imaging analysis (reference value: 24.1 +/- 8.5 %); type: organism-based; settings: in vivo, topical_or_ocular
Oryctolagus cuniculus [29] = experiment: Induction of reepithelialization in injured New Zealand white rabbit cornea assessed as wound healing administered topically for qid measured at day 7 post-injury by fluorescein sodium staining based microscopic imaging analysis (reference value: 8.6 %); type: organism-based; settings: in vivo, topical_or_ocular
Oryctolagus cuniculus [30] = experiment: Induction of reepithelialization in injured New Zealand white rabbit cornea assessed as wound healing administered topically for qid measured at day 8 post-injury by fluorescein sodium staining based microscopic imaging analysis (reference value: 3.8 %); type: organism-based; settings: in vivo, topical_or_ocular
Staphylococcus aureus [31] = experiment: In vivo antibacterial activity against Staphylococcus aureus ATCC 29213 infected in C57BL/6 mouse assessed as reduction in bacterial burden by measuring log10 CFU/cornea at 0.3% administered topically as two times on day 1, four times on day 2 and two times on day 3 measured at 48 hrs post-final dose by 10 fold serial dilution method (reference value: 6.5 +/- 0.7 log10CFU); type: functional

## CC[C@H](C)[C@H](NC(=O)CN)C(=O)NCC(=O)N[C@@H](C)C(=O)N[C@H](C(=O)N[C@@H](CC(C)C)C(=O)NCCC[C@@H](CN)C(=O)N[C@H](C(=O)N[C@@H](CC(C)C)C(=O)N[C@H](C(=O)N[C@H](C(=O)NCC(=O)N[C@@H](CC(C)C)C(=O)N1CCC[C@H]1C(=O)N[C@@H](C)C(=O)N[C@@H](CC(C)C)C(=O)N[C@H](C(=O)N[C@@H](CO)C(=O)N[C@@H](Cc1c[nH]c2ccccc12)C(=O)N[C@H](C(=O)NCCC[C@@H](CN)C(=O)N[C@@H](CCCNC(=N)N)C(=O)N[C@@H](CCCCN)C(=O)N[C@@H](CCCNC(=N)N)C(=O)N[C@@H](CCC(N)=O)C(=O)N[C@@H](CCC(N)=O)C(N)=O)[C@@H](C)CC)[C@@H](C)CC)[C@@H](C)O)[C@@H](C)O)C(C)C)C(C)C
Pseudomonas aeruginosa
  MIC: 8 to 64 µg/mL (≈ 2.81 to 22.5 µM)
  MIC50: 32 µg/mL (≈ 11.2 µM)
Candida albicans
  MIC: 16 to 32 µg/mL (≈ 5.62 to 11.2 µM)
  MIC50: 32 µg/mL (≈ 11.2 µM)
Staphylococcus aureus [1]
  MIC: 16 to 128 µg/mL (≈ 5.62 to 45 µM)
  MIC50: 64 µg/mL (≈ 22.5 µM)
Staphylococcus aureus [2]
  MIC50: 64 µg/mL (≈ 22.5 µM)
Enterococcus
  MIC: 4 to 16 µg/mL (≈ 1.41 to 5.62 µM)
  MIC50: 8 µg/mL (≈ 2.81 µM)
Acinetobacter baumannii [3]
  MIC: 2 to 8 µg/mL (≈ 0.703 to 2.81 µM)
  MIC50: 4 µg/mL (≈ 1.41 µM)
Enterobacteriaceae
  MIC: 4 to 64 µg/mL (≈ 1.41 to 22.5 µM)
  MIC50: 8 µg/mL (≈ 2.81 µM)
[4]
  viability at 24 h, 500 ug/ml: 91.9%
NHDF
  Activity: Toxic
HaCaT
  Activity: Toxic
[5]
  HC50 at 1 h: 215 µg/mL
Enterococcus faecalis [6]
  log(activity): >5
Enterococcus faecalis [7]
  log(activity): >5
Enterococcus faecalis [8]
  log(activity): >5
Acinetobacter baumannii [9]
  Activity: Active
Escherichia coli [10]
  Activity: Active
Klebsiella pneumoniae
  Activity: Active
Enterococcus faecalis [11]
  Activity: Active
Enterococcus faecalis [12]
  Activity: Active
Acinetobacter baumannii [13]
  Activity: Active
Escherichia coli [14]
  Activity: Active
Acinetobacter baumannii [15]
  Activity: Active
Enterococcus faecalis [16]
  Ratio: 4
T-cell [17]
  Activity: Non-Toxic
T-cell [18]
  Activity: Non-Toxic
T-cell [19]
  Activity: Non-Toxic
T-cell [20]
  Activity: Non-Toxic
[21]
  Stability: Stable
[22]
  remaining at 4 h: 90.3%
Oryctolagus cuniculus [23]
  Activity: 83.4%
Oryctolagus cuniculus [24]
  Activity: 60.3%
Oryctolagus cuniculus [25]
  Activity: 44.9%
Oryctolagus cuniculus [26]
  Activity: 33.1%
Oryctolagus cuniculus [27]
  Activity: 21.7%
Oryctolagus cuniculus [28]
  Activity: 14.7%
Oryctolagus cuniculus [29]
  Activity: 4.6%
Oryctolagus cuniculus [30]
  Activity: 2.9%
Staphylococcus aureus [31]
  Activity: 3.9 log10CFU
